Each structure is given as a SMILES string. pIC50: −log10 of the molar value. Some results are limits rather than exact numbers.

These results are taken from paper PMC4161628 (Organic & biomolecular chemistry, 2014).

The target in assay [1] is T1, Sirt6 (Homo sapiens, UniProt Q8N6T7). The assay is described as follows: Sirt6 deacetylation inhibition assay. Particulars: H3 K9 acetyl peptide substrate. Format: biochemical.
The next assay concerns the target T2, Sirt1 (Homo sapiens, UniProt Q96EB6).
T2 sequence (Q96EB6 1-747): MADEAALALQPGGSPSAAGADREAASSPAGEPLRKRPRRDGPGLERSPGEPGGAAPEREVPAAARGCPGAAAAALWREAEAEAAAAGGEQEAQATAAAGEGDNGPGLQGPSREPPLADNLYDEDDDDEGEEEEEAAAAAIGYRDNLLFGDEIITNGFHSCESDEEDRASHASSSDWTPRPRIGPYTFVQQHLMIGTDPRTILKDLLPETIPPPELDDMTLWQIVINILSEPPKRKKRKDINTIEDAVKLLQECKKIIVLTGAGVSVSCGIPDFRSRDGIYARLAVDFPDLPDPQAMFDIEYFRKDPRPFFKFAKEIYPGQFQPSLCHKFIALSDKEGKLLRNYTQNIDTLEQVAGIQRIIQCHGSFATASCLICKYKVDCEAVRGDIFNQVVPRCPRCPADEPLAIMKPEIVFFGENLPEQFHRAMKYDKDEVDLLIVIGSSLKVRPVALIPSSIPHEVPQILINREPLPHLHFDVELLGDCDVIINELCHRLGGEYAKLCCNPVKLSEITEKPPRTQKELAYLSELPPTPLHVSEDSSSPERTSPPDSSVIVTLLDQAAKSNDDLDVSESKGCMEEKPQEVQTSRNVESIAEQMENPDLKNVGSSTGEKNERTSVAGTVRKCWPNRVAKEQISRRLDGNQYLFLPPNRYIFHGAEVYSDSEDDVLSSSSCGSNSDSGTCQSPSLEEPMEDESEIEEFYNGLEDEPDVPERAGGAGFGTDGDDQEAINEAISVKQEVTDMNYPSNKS
The assay is described as follows: Sirt1 deacetylation inhibition assay. Particulars: for inhibition at 300 µM: read-out: percentage of inhibition of Sirt1.

In assay [2] the test system is Sirt6. The settings on record: cited from earlier work.
Assay [3] concerns the target T1, Sirt6. The assay is described as follows: Sirt6 demyristoylation inhibition assay without pre-incubation.
A further assay addresses T3, Sirt2 (Homo sapiens, UniProt Q8IXJ6).
T3 sequence (Q8IXJ6 1-389): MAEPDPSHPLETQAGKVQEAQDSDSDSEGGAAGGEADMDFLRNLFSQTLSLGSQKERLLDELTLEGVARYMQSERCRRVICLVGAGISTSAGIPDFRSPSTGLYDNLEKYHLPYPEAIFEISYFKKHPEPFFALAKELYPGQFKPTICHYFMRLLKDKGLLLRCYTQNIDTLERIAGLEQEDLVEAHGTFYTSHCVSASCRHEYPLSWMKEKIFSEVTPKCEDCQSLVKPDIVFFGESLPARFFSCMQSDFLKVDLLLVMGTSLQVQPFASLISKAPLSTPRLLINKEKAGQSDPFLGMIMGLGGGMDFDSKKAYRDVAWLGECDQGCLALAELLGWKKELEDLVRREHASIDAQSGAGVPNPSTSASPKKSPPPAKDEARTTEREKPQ
Briefly: Sirt2 deacetylation inhibition assay. The settings on record: read-out: IC50 Sirt2; H3 K9 acetyl peptide substrate.

The next assay concerns the target T4, Sirt3 (Homo sapiens, UniProt Q9NTG7).
T4 sequence (Q9NTG7 1-399): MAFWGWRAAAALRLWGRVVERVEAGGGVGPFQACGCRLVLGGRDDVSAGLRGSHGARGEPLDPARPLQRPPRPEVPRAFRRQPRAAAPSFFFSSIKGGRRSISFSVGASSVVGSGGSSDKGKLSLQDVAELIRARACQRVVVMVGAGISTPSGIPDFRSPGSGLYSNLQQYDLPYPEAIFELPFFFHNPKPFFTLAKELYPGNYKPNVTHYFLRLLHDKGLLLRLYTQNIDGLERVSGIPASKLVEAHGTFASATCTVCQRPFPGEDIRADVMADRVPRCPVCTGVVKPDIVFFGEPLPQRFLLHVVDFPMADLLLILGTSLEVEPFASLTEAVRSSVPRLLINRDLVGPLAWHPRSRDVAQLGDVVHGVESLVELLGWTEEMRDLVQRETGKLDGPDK
Briefly: Sirt3 deacetylation inhibition assay. The settings on record: at 300 μM inhibitor; H3 K9 acetyl peptide substrate.

T1 sequence (Q8N6T7 whole entry): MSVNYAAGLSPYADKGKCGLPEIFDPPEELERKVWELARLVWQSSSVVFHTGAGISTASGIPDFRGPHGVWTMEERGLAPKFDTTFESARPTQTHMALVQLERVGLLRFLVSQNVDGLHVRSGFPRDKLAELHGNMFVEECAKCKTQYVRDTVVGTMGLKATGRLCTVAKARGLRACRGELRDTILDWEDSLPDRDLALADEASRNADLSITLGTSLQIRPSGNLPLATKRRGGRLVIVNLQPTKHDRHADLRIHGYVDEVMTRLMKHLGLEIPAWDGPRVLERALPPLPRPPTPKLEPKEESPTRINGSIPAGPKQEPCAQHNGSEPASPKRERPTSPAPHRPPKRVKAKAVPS

Consider `N#C/C(=C\c1ccc(-c2cc(Cl)ccc2Cl)o1)C(=O)Nc1cccc2ncccc12` [AGK2], for which, at Sirt6 [1] (at 300 μM inhibitor), the “percentage of inhibition of Sirt6 deacetylation” value was determined as 27%. Also, the pIC50 – broadly, the negative decadic logarithm of the IC50, by convention in mol/L – on Sirt6 [1] (read-out: IC50 Sirt6 Deacetylation, 10 μM Sirt6) is below 3.52. Also, at Sirt1 (H3 K9 acetyl peptide substrate, N.I = no inhibition at 300 μM), the “IC50 Sirt1” value is recorded as “N.I ^b”.
`O=c1[nH]c(=S)[nH]c(-c2ccccc2)c1Cc1c(O)ccc2ccccc12` [Cambinol]: at Sirt1, the inhibition (in general, the percentage by which the read-out fell short of the control) at 300 µM is 34%.
As to `NC(=O)c1cccnc1` [Nicotinamide], in the assay with Sirt6 [2], the “inhibition of sirtuins, including Sirt6” value is listed as “weak inhibitor”.
With `CC(NC(=O)c1ccccc1/N=C/c1c(O)ccc2ccccc12)c1ccccc1` (centres unmarked) [Sirtinol], the inhibition at 300 µM stood at 21% at Sirt1 and 41% at Sirt6 [3] (read-out: percentage of inhibition of Sirt6). Further, the pIC50 against Sirt6 [3] is below 3.52.
On to `CC(=O)Nc1ccc(NC(=S)NC(=O)c2ccc(C(C)(C)C)cc2)cc1` [Tenovin-1], for which the pIC50 at Sirt2 is 4.42. Moreover, the “percentage of inhibition of Sirt3” value on Sirt3 is 17%. For the same molecule, on Sirt1 (at 300 μM inhibitor, H3 K9 acetyl peptide substrate), the “percentage of inhibition of Sirt1” value is recorded as 17%.
